Assay [1] deals with NT2/D1-R1 cells. As to the kind of experiment: Apoptosis by PARP cleavage and sub G1 DNA content. Format: cell-based. To be noted: cisplatin; cisplatin-resistant NT2/D1-R1. As for the experimental part: (§1) Importantly, decitabine-mediated H2AX activation also occurs in the presence of the caspase 3 inhibitor (Z-VAD-FMK) at concentrations that inhibit PARP cleavage.
(§2) Cells were cultured in DMEM media (Gibco) with 10% FBS. Decitabine was added fresh each day. Lentiviral control cells and the stable shRNA DNMT3B knockdown cell line (NT2/D1-R1-sh84) were described previously (Beyrouthy et al. 2009. Cancer Res. 69:9360-9366). DNMT3B knockdown was greater than 90% as confirmed by western blot analysis. Cell proliferation and survival were assessed with the CELL-TITRE GLO assay (Promega). Cell cycle analysis with propidium iodine has been previously described (Kerley-Hamilton et al. 2005. Oncogene 24:6090-6100).
(§3) SYBR green-based real-time PCR (Applied Biosystems) was employed using the ddCT method normalized to GAPDH. For western blot analysis cells were lysed in radioimmune precipitation buffer and separated by SDS-PAGE. Antibodies to actin (sc01615, Santa Cruz), 139-H2AX (Cell Signaling), PARP (c-2-10, Biomol International) and p53 (D0-1, Santa Cruz) were used.

Assay [2] deals with NT2/D1 cells. Put plainly: Cell-Titre Glo viable cell growth and survival, 3 day decitabine. The class given is cell-based. To be noted: NT2/D1. Here is the method: Indicated doses of decitabine were added fresh each day for three days to exponentially growing cultures. Viable cell growth and survival were measured. Data are normalized to no drug treatment. EC cells are NT2/D1, NT2D1/R1, 833K, 833KCP, and Tera-1. Data are the average of 3 experiments in biological duplicate except for MCF-7 cells, which were assayed twice. Error bars are standard deviation (S.D.).
Cell growth and viability of five EC cell lines (NT2/D1, NT2D1/R1, 833K, 833KCP, and Tera-1) were determined, including two cell lines that are cisplatin-resistant (NT2/D1-R1 and 833KCP). Three control somatic tumor cell lines were also tested (HCT116, MCF7 and U2OS). […] Viable cell growth and survival were measured using Cell-Titre Glo (Promega) assays. […] These higher values are similar to the values shown in FIG. 1 for somatic tumor cell lines (MCF7, U2OS and HCT116).
NT2/D1, NT2D1-R1, 833K, 833K-CP, Tera-1, U20S, and HCT116 cells were cultured in DMEM with 10% FBS supplemented with glutamine and antibiotics except for MCF7 cells that were cultured in F12-DMEM. The derivation of the NT2/D1-resistant NT2/D1-R1 cell line has been previously described (Curtin et al. 2001. Oncogene 20:2559-2569; Kerley-Hamilton et al. 2007. Biochim. Biophys. Acta 1769:209-219). Cells were treated with the indicated dosages of 5-azadeoxycytidine (5-aza-CdR) for 3 days. This drug was replenished each day. Cisplatin (Bristol Laboratories) treatments were performed at the concentrations and time points indicated. To assess cell proliferation and survival, CELL-TITRE GLO (Promega) assays were performed.
as §2

The subject of assay [3] is phosphorylated H2AX in NT2/D1-R1 cells. Put plainly: DNA damage by induction of phosphorylated H2AX (western blot). The class given is cell-based. To be noted: cisplatin.
Text: as §1, §3
(In general: A western blot detects proteins with antibodies after separation by electrophoresis.)

Assay [4] relates to NT2/D1 cells. As to the kind of experiment: Gene expression microarray with PAM cluster analysis (Tables 1-5). Format: cell-based, human. Here is the method: The cisplatin treatment protocol has been previously described (Kerley-Hamilton et al. 2005. Oncogene 24:6090-6100).
The same effect was not observed in cells treated with cisplatin; gene expression levels were not dramatically altered in cisplatin-treated cells. […] The genes clustered into distinct patterns.
Next, partitioning around medoids (PAM) analysis was performed on the 1130 genes whose expression levels changed by 1.5-fold or greater as compared to control treatment. […] Changes in gene expression levels of representative genes for each cluster were confirmed in independent samples by real-time PCR (FIG. 10).
(§4) Expression analysis was performed on the […] HumanHT-12 v3 or […] HumanHT-12 v4 bead chip arrays ([…]) and scanned on the BeadArray Reader ([…]) according to manufacturer's instructions.

In assay [5] the test system is NT2 cells. Put plainly: Gene set enrichment analysis (GSEA) of microarray data (Table 6). Format: cell-based, human. The following applies: Gene Sets Enriched in NT2 Cells with Cisplatin Treatment (0.5 μM for 3 days). Here is the method: Gene set enrichment analysis (GSEA) was performed.
as §4

The test system of assay [6] is NT2/D1 cells. As to the kind of experiment: Apoptosis by PARP cleavage and sub G1 DNA content. Format: cell-based. To be noted: cisplatin 0.5 μM; NT2/D1 versus NT2/D1-R1. Here is the method: as §2, §3

Regarding `N.N.[Cl][Pt][Cl]` [cisplatin], the PARP cleavage result in assay [1] is recorded as “does not induce PARP cleavage”. In addition, the “effects on cell viability and proliferation” value in assay [2] (after 1 day of cisplatin treatment) is recorded as “minimal”. For the same compound, in assay [2] (by day two of cisplatin treatment), the “effects on cell viability and proliferation” value is “robust anti-proliferation and cell death effects”. In addition, the “induction of phospho-H2AX” value in assay [3] is on record as “can induce phospho-H2AX”. Besides, in assay [4] (0.5 μM cisplatin 6 hours, 24 hour recovery), the “Cluster 2: unique genes whose expression levels were increased only by cisplatin treatment” value was 81 genes. In assay [4] (1.5-fold or greater), the “Cluster 3: genes upregulated by both decitabine treatment and cisplatin treatment” value amounted to 71 genes; the “Cluster 5: genes down-regulated by both decitabine treatment and cisplatin treatment” value is reported as 88 genes. Further, in assay [5], the “NES, AMIT_EGF_RESPONSE_120_MCF10A” value is −2.2779; the “NES, AMIT_EGF_RESPONSE_480_HELA” value is reported as −2.5999; the “NES, AMUNDSON_DNA_DAMAGE_RESPONSE_TP53” value is −2.2828; the “NES, CONCANNON_APOPTOSIS_BY_EPOXOMICIN_UP” value was −2.2899. In addition, in assay [5], the “NES, DACOSTA_UV_RESPONSE_VIA_ERCC3_UP” value was −2.3411; the “NES, INGA_TP53_TARGETS” value is on record as −2.3095; the “NES, KANNAN_TP53_TARGETS_UP” value was −2.5961; the “NES, KERLEY_RESPONSE_TO_CISPLATIN_UP” value is given as −3.0393. In assay [5], the “NES, SCHAVOLT_TARGETS_OF_TP53_AND_TP63” value was −2.4114 and the “NES, WEIGEL_OXIDATIVE_STRESS_RESPONSE” value is recorded as −2.3010. Further, the “apoptotic responses (PARP cleavage, sub G1 DNA content)” value in assay [6] was “induces these responses only in cisplatin-sensitive NT2/D1 cells”.

The values above are taken from patent publication US9476099B2 (TRUSTEES OF DARTMOUTH COLLEGE, priority 2012, dated 2016).
